Assay results taken from ChEMBL document CHEMBL1201862, “PubChem BioAssay data set” (2004).
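Step 1: Grow cells in 96-well plates. Step 2: Expose to compound for 48 hours at 5 concentrations. Step 3: Interpolate endpoints linearly; if unreached, use highest concentration. GI50: concentration for 50% inhibition of growth.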 Active and inactive are the calls of the source. Cut-off read from the data, not from the text of the source: active = GI50 up to about 1.1 µM and inactive = higher.

Experiments:
Assay in all cases: DTP human tumour cell line panel, 48 h
[1] = test system: OVCAR-3
[2] = test system: SK-MEL-5
[3] = test system: HCT-15
[4] = test system: HT-29
[5] = test system: HOP-92
[6] = test system: U-251
[7] = test system: K562
[8] = test system: HL-60
[9] = test system: OVCAR-4
[10] = test system: SN12C
[11] = test system: SNB-78
[12] = test system: CCRF-CEM
[13] = test system: COLO 205
[14] = test system: ACHN
[15] = test system: IGROV-1
[16] = test system: HOP-62
[17] = test system: DMS-114
[18] = test system: UO-31
[19] = test system: SF-295
[20] = test system: UACC-257
[21] = test system: XF498
[22] = test system: DLD-1
[23] = test system: 786-0
[24] = test system: EKVX
[25] = test system: SK-OV-3
[26] = test system: M19-MEL
[27] = test system: LXFL 529
[28] = test system: MOLT-4
[29] = test system: M14
[30] = test system: SW-620
[31] = test system: DMS-273
[32] = test system: RXF 631
[33] = test system: KM-20L2
[34] = test system: Malme-3M
[35] = test system: UACC-62
[36] = test system: A549
[37] = test system: SNB-19
[38] = test system: RXF 393
[39] = test system: LOX IMVI
[40] = test system: SK-MEL-28
[41] = test system: NCI-H460
[42] = test system: HCC 2998
[43] = test system: RPMI-8226
[44] = test system: SF-268
[45] = test system: SR
[46] = test system: NCI-H23
[47] = test system: HCT-116
[48] = test system: OVCAR-5
[49] = test system: TK-10
[50] = test system: A498
[51] = test system: SF-539
[52] = test system: SNB-75
[53] = test system: HOP-18
[54] = test system: OVCAR-8
[55] = test system: KM12
[56] = test system: NCI-H226
[57] = test system: CAKI-1
[58] = test system: SK-MEL-2
[59] = test system: NCI-H522

Measured: GI50

O=C(O)C1CCCCN1C(=O)c1ccccc1 (stereo unspecified)
inactive: [1] > 100 µM | [2] > 100 µM | [4] > 100 µM | [5] > 100 µM | [6] > 100 µM | [7] > 100 µM | [8] > 100 µM | [9] > 100 µM | [10] > 100 µM | [11] > 100 µM | [12] > 100 µM | [13] > 100 µM | [14] > 100 µM | [15] > 100 µM | [16] > 100 µM | [17] > 100 µM | [18] > 100 µM | [19] > 100 µM | [20] > 100 µM | [21] > 100 µM | [22] > 100 µM | [23] > 100 µM | [24] > 100 µM | [25] > 100 µM | [26] > 100 µM | [27] > 100 µM | [28] > 100 µM | [29] > 100 µM | [30] > 100 µM | [31] > 100 µM | [32] > 100 µM | [33] > 100 µM | [34] > 100 µM | [35] > 100 µM | [36] > 100 µM | [37] > 100 µM | [38] > 100 µM | [39] > 100 µM | [40] > 100 µM | [41] > 100 µM | [42] > 100 µM | [43] > 100 µM | [44] > 100 µM | [45] > 100 µM | [46] > 100 µM | [47] > 100 µM | [48] > 100 µM | [49] > 100 µM | [50] > 100 µM | [51] > 100 µM | [52] > 100 µM | [53] > 100 µM | [54] > 100 µM | [55] > 100 µM
> 100 µM: [3]

CC(C)C(NCc1c2ccccc2[n+](C)c2ccccc12)C(=O)O (stereo unspecified)
active: [7] 0.782 µM | [12] 0.627 µM | [43] 0.603 µM | [45] 0.748 µM
inactive: [1] 5.81 µM | [2] 3.31 µM | [4] 2.89 µM | [5] 3.57 µM | [6] 7.28 µM | [56] 14.7 µM | [8] 1.97 µM | [9] 7.62 µM | [10] 5.58 µM | [11] 5.73 µM | [13] 2.34 µM | [14] 3.53 µM | [15] 8.59 µM | [16] 13.8 µM | [17] 2.28 µM | [18] 8.07 µM | [19] 6.76 µM | [20] 5.51 µM | [21] 4.99 µM | [22] 2.39 µM | [23] 4.66 µM | [24] 10.6 µM | [25] 15.5 µM | [26] 7.33 µM | [27] 3.53 µM | [28] 1.14 µM | [29] 4.49 µM | [30] 3.7 µM | [31] 3.25 µM | [32] 4.74 µM | [33] 2.78 µM | [34] 6.62 µM | [35] 3.56 µM | [36] 8.22 µM | [37] 15.5 µM | [38] 3.48 µM | [39] 5.42 µM | [40] 12.9 µM | [41] 5.94 µM | [42] 14.8 µM | [44] 2.99 µM | [46] 8.43 µM | [47] 2.67 µM | [48] 18.9 µM | [57] 3.48 µM | [49] 7.91 µM | [50] 7.26 µM | [51] 5.94 µM | [58] 6.04 µM | [52] 1.5 µM | [53] 5.78 µM | [54] 3.78 µM | [55] 4.91 µM | [59] 2.15 µM
3.68 µM: [3]

COC(=O)c1cc2c3ccccc3n(C(C)=O)c2cn1
68.9 µM: [3]
inactive: [1] 98.6 µM | [2] > 100 µM | [4] > 100 µM | [5] 49 µM | [6] > 100 µM | [56] > 100 µM | [7] 59.2 µM | [8] 35.7 µM | [9] 60 µM | [10] > 100 µM | [11] > 100 µM | [12] 38.8 µM | [13] 92.5 µM | [14] 53.8 µM | [15] 40.4 µM | [16] 59.6 µM | [17] > 100 µM | [18] > 100 µM | [19] > 100 µM | [20] > 100 µM | [21] 38.6 µM | [22] > 100 µM | [23] > 100 µM | [24] 51.2 µM | [25] > 100 µM | [26] > 100 µM | [27] 66.4 µM | [28] 41.6 µM | [29] > 100 µM | [30] > 100 µM | [31] > 100 µM | [32] 77.6 µM | [33] > 100 µM | [34] > 100 µM | [35] 76.9 µM | [36] > 100 µM | [37] > 100 µM | [38] 43.9 µM | [39] 63.4 µM | [40] > 100 µM | [41] 35.6 µM | [42] > 100 µM | [43] 45.4 µM | [45] 45.6 µM | [46] 83.4 µM | [47] > 100 µM | [48] > 100 µM | [57] 23.2 µM | [49] 45.8 µM | [51] > 100 µM | [58] > 100 µM | [52] 25.6 µM | [53] 44.9 µM | [54] 56.4 µM | [55] 80.5 µM | [59] 53.1 µM
